In one assay the test system is HaCaT cells. Description: In vitro scratch analysis in HaCaT cells. The assay is classed as cell-based, human. As to conditions: scratch model with 15-PGDH and its coenzyme NAD+. As for the experimental part:
For in vitro scratch analysis (Hintermann et al., 2001; Koivisto et al., 2006), HaCaT cells were seeded 3×10^5 cells per well on 6-well plates and cultured until 80% confluence was reached. Then, culture medium was replaced with serum-free medium containing mitomycin (10 μg/mL) and cells were cultured for 2 hours to block the proliferation of wound and washed with PBS. Scratch was made by sterilized 200 μL pipette tip and washed again.
The process of wound healing was observed by taking photographs of identical spots before and after the culture. Experiment was repeated for 3 times and representative photos were illustrated Immediately after the formation of scratch, photos of scratch were taken by microscope (×100) and 48 hours after the culture, photos were taken once more. By measuring the distance between scratch, the % recovery rate by drug was calculated in comparison with the negative control group.
In the meantime, in order to investigate whether PGE2 is directly involved in scratch healing, 15-PGDH and its coenzyme NAD^+ were treated in identical model system.

The test system of assay [1] is ICR mice. Description: In vivo wound healing, 5 mm circular wound, H&E tissue staining. The conditions noted are these: TGF-β1 20 ng/day. As for the experimental part: To confirm the wound healing effect of Dendropanax morbifera extract of the present invention in vivo, following experiments were conducted. First, 7 week old male ICR mice (average weight: 25 g) were purchased from Damul Science Co. (Daejuen, Korea) and after a week of adjustment period, they were anesthetized by administering anesthetic (zoletil, 50 μL) into the abdominal cavity and then circular wound with diameter of 5 mm was made under anesthesia. From a day later, being divided into 4 groups, wound of each group was treated with drugs daily basis as below while 10 μL of drugs were applied to wound of each group and the degree of healing was observed by tissue staining Animal experiments conducted in the examples were approved by Chonnam National University animal experiment ethics committee (IRB) (CNU IACUC-YB-R-2012-12) and tissue staining was done by fragmenting the wounded tissue of mice on which the above experiment of 4 groups was conducted and stained with hemtoxylin-Eosin (H & E). The distance of recovered wound was measured by visualizing stained tissues with microscope (40×). Moreover, the wound healing efficiency was calculated based on the distance measured.

In assay [2] the test system is ICR mice. Description: In vivo gastric ulcer prevention, HCl/ethanol-induced gastric lesion. As to conditions: oral, 24 h and 1 h before HCl/ethanol; DMHE 0.87 mg/kg, sucralfate 100 mg/kg. The source says: To investigate the prevention effect of Dendropanax morbifera for gastric ulcer, […] male ICR mice with weight of 20±2 g were used. The mice above were purchased from Damul Science Co. (Daejuen, Korea). Animal experiments conducted in the examples were approved by Chonnam National University animal experiment ethics committee (IRB) (CNU IACUC-YB-R-2012-11).
The above-described animals were divided into 3 groups (for each group, n=7) that comprise normal group (vehicle 0.5% CMC (carboxyl methylcellulose)), positive control group (sucralfate, 100 mg/kg in 0.5% CMC) and experimental group (Dendropanax morbifera leaf hexane extract in 0.5% CMC).
Balanced diet was provided to the animals and they were allowed to drink water freely. One week later, animals were forced to fast for all day long. 24 hours before inducing the […] bleeding, Dendropanax morbifera hexane extract (DMHE, dissolved in 0.5% CMC) was administered with oral dose of 0.87 mg/kg and administered once more 1 hour before HCl/ethanol was applied. It was conducted for the negative (0.5% CMC, 1 mL/kg) and positive control group (sucralfate, 100 mg/kg in 0.5% CMC) simultaneously. By administering HCl/ethanol mixture containing 150 mM HCl in 60% ethanol into stomach, gastric lesion of hemorrhage was induced. […]

As for “TGF-β1: transforming growth factor β1, a cytokine; positive control for wound healing”, the “wound healing effect on treatment with 15-PGDH and NAD+” value with HaCaT cells is “completely vanished”. Moreover, the distance between wound with ICR mice [1] (4th day after drug treatment) is reported as 1.72 mm. In the assay with ICR mice [1] (4th day), the “% of healing compared to initial wound diameter (5 mm)” value was found to be 65.6%.

sucralfate: the “gastric lesion (bleeding, edema)” value with ICR mice [2] was “have not shown any type of lesion”.

The record behind these values is patent publication US9649350B2, “Use for dendropanax morbifera extract for adjusting 15- hydroxyprostaglandin dehydrogenase and PGE 2 activity” (INDUSTRY-ACADEMIC COOPERATION FOUNDATION, CHOSUN UNIVERSITY, priority 2012, dated 2017).
